Measurements from PubChem BioAssay (NCI).
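Following 48 hours of exposure in 96-well plates, responses at five concentrations were used to interpolate endpoints linearly. The concentration for full growth arrest is given as TGI.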

Assays:
Assay in all cases: DTP human tumour cell line panel, 48 h
786-0 renal = tested on: 786-0 renal
A498 renal = tested on: A498 renal
A549 NSCLC = tested on: A549 NSCLC
ACHN renal = tested on: ACHN renal
BT-549 breast = tested on: BT-549 breast
CAKI-1 renal = tested on: CAKI-1 renal
CCRF-CEM leukemia = tested on: CCRF-CEM leukemia
COLO 205 colon = tested on: COLO 205 colon
DU-145 prostate = tested on: DU-145 prostate
EKVX NSCLC = tested on: EKVX NSCLC
HCC-2998 colon = tested on: HCC-2998 colon
HCT-116 colon = tested on: HCT-116 colon
HCT-15 colon = tested on: HCT-15 colon
HL-60(TB) leukemia = tested on: HL-60(TB) leukemia
HOP-62 NSCLC = tested on: HOP-62 NSCLC
HOP-92 NSCLC = tested on: HOP-92 NSCLC
HS 578T breast = tested on: HS 578T breast
HT29 colon = tested on: HT29 colon
IGROV1 ovarian = tested on: IGROV1 ovarian
K-562 leukemia = tested on: K-562 leukemia
KM12 colon = tested on: KM12 colon
LOX IMVI melanoma = tested on: LOX IMVI melanoma
M14 melanoma = tested on: M14 melanoma
MALME-3M melanoma = tested on: MALME-3M melanoma
MCF7 breast = tested on: MCF7 breast
MDA-MB-231 breast = tested on: MDA-MB-231 breast
MDA-MB-435 = tested on: MDA-MB-435
MDA-N = tested on: MDA-N
MOLT-4 leukemia = tested on: MOLT-4 leukemia
NCI-H226 lung = tested on: NCI-H226 lung
NCI-H23 lung = tested on: NCI-H23 lung
NCI-H460 lung = tested on: NCI-H460 lung
NCI-H522 lung = tested on: NCI-H522 lung
NCI/ADR-RES ovarian = tested on: NCI/ADR-RES ovarian
OVCAR-3 ovarian = tested on: OVCAR-3 ovarian
OVCAR-4 ovarian = tested on: OVCAR-4 ovarian
OVCAR-5 ovarian = tested on: OVCAR-5 ovarian
OVCAR-8 ovarian = tested on: OVCAR-8 ovarian
PC-3 prostate = tested on: PC-3 prostate
RPMI-8226 leukemia = tested on: RPMI-8226 leukemia
RXF 393 renal = tested on: RXF 393 renal
SF-268 CNS = tested on: SF-268 CNS
SF-295 CNS = tested on: SF-295 CNS
SF-539 CNS = tested on: SF-539 CNS
SK-MEL-2 melanoma = tested on: SK-MEL-2 melanoma
SK-MEL-28 melanoma = tested on: SK-MEL-28 melanoma
SK-MEL-5 melanoma = tested on: SK-MEL-5 melanoma
SK-OV-3 ovarian = tested on: SK-OV-3 ovarian
SN12C renal = tested on: SN12C renal
SNB-19 CNS = tested on: SNB-19 CNS
SNB-75 CNS = tested on: SNB-75 CNS
SR leukemia = tested on: SR leukemia
SW-620 colon = tested on: SW-620 colon
T-47D breast = tested on: T-47D breast
TK-10 renal = tested on: TK-10 renal
U251 CNS = tested on: U251 CNS
UACC-257 melanoma = tested on: UACC-257 melanoma
UACC-62 melanoma = tested on: UACC-62 melanoma
UO-31 renal = tested on: UO-31 renal

c1ccc(C2=NOC(c3ccccc3)N2C23CC4CC(CC(C4)C2)C3)cc1 (stereo unspecified)
TGI (786-0 renal): > 10 µM | TGI (A498 renal): > 10 µM | TGI (A549 NSCLC): > 10 µM | TGI (ACHN renal): > 10 µM | TGI (BT-549 breast): > 10 µM | TGI (CAKI-1 renal): > 10 µM | TGI (CCRF-CEM leukemia): > 10 µM | TGI (COLO 205 colon): > 10 µM | TGI (DU-145 prostate): > 10 µM | TGI (EKVX NSCLC): > 10 µM | TGI (HCC-2998 colon): > 10 µM | TGI (HCT-116 colon): > 10 µM | TGI (HCT-15 colon): > 10 µM | TGI (HL-60(TB) leukemia): > 10 µM | TGI (HOP-62 NSCLC): > 10 µM | TGI (HOP-92 NSCLC): > 10 µM | TGI (HS 578T breast): > 10 µM | TGI (HT29 colon): > 10 µM | TGI (IGROV1 ovarian): > 10 µM | TGI (K-562 leukemia): > 10 µM | TGI (KM12 colon): > 10 µM | TGI (LOX IMVI melanoma): > 10 µM | TGI (M14 melanoma): > 10 µM | TGI (MALME-3M melanoma): > 10 µM | TGI (MCF7 breast): > 10 µM | TGI (MDA-MB-231 breast): > 10 µM | TGI (MDA-MB-435): > 10 µM | TGI (MDA-N): > 10 µM | TGI (MOLT-4 leukemia): > 10 µM | TGI (NCI-H226 lung): > 10 µM | TGI (NCI-H23 lung): > 10 µM | TGI (NCI-H460 lung): > 10 µM | TGI (NCI-H522 lung): > 10 µM | TGI (NCI/ADR-RES ovarian): > 10 µM | TGI (OVCAR-3 ovarian): > 10 µM | TGI (OVCAR-4 ovarian): > 10 µM | TGI (OVCAR-5 ovarian): > 10 µM | TGI (OVCAR-8 ovarian): > 10 µM | TGI (PC-3 prostate): > 10 µM | TGI (RPMI-8226 leukemia): > 10 µM | TGI (RXF 393 renal): > 10 µM | TGI (SF-268 CNS): > 10 µM | TGI (SF-295 CNS): > 10 µM | TGI (SF-539 CNS): > 10 µM | TGI (SK-MEL-2 melanoma): > 10 µM | TGI (SK-MEL-28 melanoma): > 10 µM | TGI (SK-MEL-5 melanoma): > 10 µM | TGI (SK-OV-3 ovarian): > 10 µM | TGI (SN12C renal): > 10 µM | TGI (SNB-19 CNS): > 10 µM | TGI (SNB-75 CNS): > 10 µM | TGI (SR leukemia): > 10 µM | TGI (SW-620 colon): > 10 µM | TGI (T-47D breast): > 10 µM | TGI (TK-10 renal): > 10 µM | TGI (U251 CNS): > 10 µM | TGI (UACC-257 melanoma): > 10 µM | TGI (UACC-62 melanoma): > 10 µM

C[C@@H]1CCC2[C@@H](C)[C@@H](O[C@H]3O[C@@H]4O[C@@]5(C)CCC6[C@H](C)CCC([C@H]3C)[C@]64OO5)O[C@@H]3O[C@@]4(C)CCC1[C@@]23OO4 (stereo partly specified)
TGI (786-0 renal): > 25 µM | TGI (A498 renal): > 25 µM | TGI (A549 NSCLC): > 25 µM | TGI (ACHN renal): > 25 µM | TGI (BT-549 breast): > 25 µM | TGI (CAKI-1 renal): > 25 µM | TGI (CCRF-CEM leukemia): > 25 µM | TGI (COLO 205 colon): > 25 µM | TGI (DU-145 prostate): > 25 µM | TGI (EKVX NSCLC): > 25 µM | TGI (HCC-2998 colon): > 25 µM | TGI (HCT-116 colon): > 25 µM | TGI (HCT-15 colon): > 25 µM | TGI (HL-60(TB) leukemia): > 5.22 µM | TGI (HOP-62 NSCLC): > 25 µM | TGI (HOP-92 NSCLC): > 25 µM | TGI (HS 578T breast): > 25 µM | TGI (HT29 colon): > 25 µM | TGI (IGROV1 ovarian): > 25 µM | TGI (K-562 leukemia): > 25 µM | TGI (KM12 colon): > 25 µM | TGI (LOX IMVI melanoma): > 25 µM | TGI (M14 melanoma): > 25 µM | TGI (MCF7 breast): > 25 µM | TGI (MDA-MB-231 breast): > 25 µM | TGI (MDA-MB-435): > 25 µM | TGI (MDA-N): > 25 µM | TGI (MOLT-4 leukemia): > 25 µM | TGI (NCI-H226 lung): > 25 µM | TGI (NCI-H23 lung): > 25 µM | TGI (NCI-H460 lung): > 25 µM | TGI (NCI-H522 lung): > 25 µM | TGI (NCI/ADR-RES ovarian): > 25 µM | TGI (OVCAR-3 ovarian): > 25 µM | TGI (OVCAR-4 ovarian): > 25 µM | TGI (OVCAR-5 ovarian): > 25 µM | TGI (OVCAR-8 ovarian): > 25 µM | TGI (PC-3 prostate): > 25 µM | TGI (RPMI-8226 leukemia): > 7.26 µM | TGI (RXF 393 renal): > 25 µM | TGI (SF-268 CNS): > 25 µM | TGI (SF-295 CNS): > 25 µM | TGI (SF-539 CNS): > 25 µM | TGI (SK-MEL-2 melanoma): > 25 µM | TGI (SK-MEL-28 melanoma): > 25 µM | TGI (SK-MEL-5 melanoma): > 25 µM | TGI (SK-OV-3 ovarian): > 25 µM | TGI (SN12C renal): > 25 µM | TGI (SNB-19 CNS): > 25 µM | TGI (SNB-75 CNS): > 25 µM | TGI (SR leukemia): > 25 µM | TGI (SW-620 colon): > 25 µM | TGI (T-47D breast): > 25 µM | TGI (TK-10 renal): > 25 µM | TGI (U251 CNS): > 25 µM | TGI (UACC-257 melanoma): > 25 µM | TGI (UACC-62 melanoma): > 25 µM | TGI (UO-31 renal): > 25 µM
